Results as given in PubChem BioAssay AID330 (DTP/NCI, 2004).
Toxic doses and inconclusive results are not listed. The calls were made as follows: active = survival T/C of 150% or more; inactive = T/C below 125% in these data.

Test system: P388 leukemia ip, CD2F1 mice, survival T/C
Assay: NCI In Vivo Anticancer Drug Screen. Data for tumor model P388 Leukemia (intraperitoneal) in CD2F1 (CDF1) mice
Conditions: endpoint: median survival time, higher = longer survival
In short: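 Mice carrying the transplanted tumor received test compound or vehicle. Survival was recorded in each group, and the value is the treated-group measurement divided by that of the vehicle-treated control group.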

[1] = dose: 100.0 mg/kg/injection, schedule: Q01DX001 (ip), vehicle: saline with Tween-80
[2] = dose: 200.0 mg/kg/injection, schedule: Q01DX001 (ip), vehicle: saline with Tween-80
[3] = dose: 400.0 mg/kg/injection, schedule: Q01DX001 (ip), vehicle: saline with Tween-80
[4] = dose: 50.0 mg/kg/injection, schedule: Q01DX005 (ip), vehicle: Klucel (hydroxypropylcellulose) (HPC)
[5] = dose: 100.0 mg/kg/injection, schedule: Q01DX005 (ip), vehicle: Klucel (hydroxypropylcellulose) (HPC)
[6] = dose: 200.0 mg/kg/injection, schedule: Q01DX005 (ip), vehicle: Klucel (hydroxypropylcellulose) (HPC)
[7] = dose: 50.0 mg/kg/injection, schedule: Q01DX009 (ip), vehicle: Klucel (hydroxypropylcellulose) (HPC)
[8] = dose: 100.0 mg/kg/injection, schedule: Q01DX009 (ip), vehicle: Klucel (hydroxypropylcellulose) (HPC)
[9] = dose: 200.0 mg/kg/injection, schedule: Q01DX009 (ip), vehicle: Klucel (hydroxypropylcellulose) (HPC)
[10] = dose: 25.0 mg/kg/injection, schedule: Q01DX009 (ip), vehicle: saline with Tween-80
[11] = dose: 50.0 mg/kg/injection, schedule: Q01DX009 (ip), vehicle: saline with Tween-80
[12] = dose: 100.0 mg/kg/injection, schedule: Q01DX009 (ip), vehicle: saline with Tween-80
[13] = dose: 60.0 mg/kg/injection, schedule: Q01DX005 (ip), vehicle: saline with Tween-80
[14] = dose: 120.0 mg/kg/injection, schedule: Q01DX005 (ip), vehicle: saline with Tween-80
[15] = dose: 240.0 mg/kg/injection, schedule: Q01DX005 (ip), vehicle: saline with Tween-80
[16] = dose: 60.0 mg/kg/injection, schedule: Q01DX005 (ip), vehicle: Klucel (hydroxypropylcellulose) (HPC)
[17] = dose: 120.0 mg/kg/injection, schedule: Q01DX005 (ip), vehicle: Klucel (hydroxypropylcellulose) (HPC)
[18] = dose: 50.0 mg/kg/injection, schedule: Q01DX005 (ip), vehicle: saline with Tween-80
[19] = dose: 100.0 mg/kg/injection, schedule: Q01DX005 (ip), vehicle: saline with Tween-80
[20] = dose: 200.0 mg/kg/injection, schedule: Q01DX009 (ip), vehicle: saline with Tween-80

Measured: T/C

Cc1ccc(-c2nc3n(c2/C=N/NC(N)=S)CCS3)cc1
inactive: [1] 109 % of control | [2] 103 % of control | [3] 97 % of control

CC(=O)Oc1cc(C)cc2c1[C@@]1(C)CC[C@H]3[C@@H](CC[C@H]4C[C@@H](OC(C)=O)CC[C@@]43C)[C@@H]1C2
inactive: [4] 96 % of control | [5] 96 % of control | [6] 107 % of control

CC(=O)Oc1c(C)c2c(O)c3c1C1=C(OCOC1=C(C)C3=O)C(C)=CC(C)(O)C(O)C(C)C(O)C1C(=O)OC(C(C)/C=C\C=C(C)C(=O)N2)C(C)C1O (stereo not given)
inactive: [4] 108 % of control | [7] 99 % of control | [5] 108 % of control | [8] 100 % of control | [6] 108 % of control | [9] 104 % of control | dose: 400.0 mg/kg/injection, schedule: Q01DX009 (ip), vehicle: Klucel (hydroxypropylcellulose) (HPC) 103 % of control

N#CSc1ccc2nc(NC(NC=O)C(Cl)(Cl)Cl)sc2c1 (stereo not given)
inactive: dose: 6.25 mg/kg/injection, schedule: Q01DX009 (ip), vehicle: Klucel (hydroxypropylcellulose) (HPC) 105 % of control | dose: 12.5 mg/kg/injection, schedule: Q01DX009 (ip), vehicle: Klucel (hydroxypropylcellulose) (HPC) 110 % of control | dose: 25.0 mg/kg/injection, schedule: Q01DX009 (ip), vehicle: Klucel (hydroxypropylcellulose) (HPC) 103 % of control

O=[N+]([O-])c1ccc(-c2nc(/C=N/N3CCCCC3)cs2)s1
inactive: [10] 104 % of control | [11] 106 % of control | [12] 109 % of control

Cc1cc(C)n(C2=NS(=O)(=O)c3ccccc3N2C)n1
inactive: [13] 93 % of control | [14] 101 % of control | [15] 99 % of control

CC(c1ccccc1)c1cc(C(C)(C)C)cc(C(C)(C)C)c1O (stereo not given)
inactive: dose: 50.0 mg/kg/injection, schedule: Q01DX005 (ip), vehicle: distilled water + alcohol 96 % of control | dose: 100.0 mg/kg/injection, schedule: Q01DX005 (ip), vehicle: distilled water + alcohol 100 % of control | dose: 200.0 mg/kg/injection, schedule: Q01DX005 (ip), vehicle: distilled water + alcohol 99 % of control

CCC1(O)C(=O)OCc2c1cc1n(c2=O)Cc2c-1nc1ccccc1c2OC (stereo not given)
inactive: dose: 6.25 mg/kg/injection, schedule: Q01DX009 (ip), vehicle: saline 103 % of control | dose: 12.5 mg/kg/injection, schedule: Q01DX009 (ip), vehicle: saline 100 % of control | dose: 25.0 mg/kg/injection, schedule: Q01DX009 (ip), vehicle: saline 108 % of control

Cc1ccc(S(=O)(=O)C(C#N)(Cc2c[nH]c3ccccc23)Cc2c[nH]c3ccccc23)cc1
inactive: [4] 107 % of control | [5] 101 % of control | [6] 98 % of control

Cc1cc(C)nc(NCCCCCCNc2nc(C)cc(C)n2)n1
inactive: dose: 100.0 mg/kg/injection, schedule: Q04DX003 (ip), vehicle: saline with Tween-80 101 % of control | dose: 200.0 mg/kg/injection, schedule: Q04DX003 (ip), vehicle: saline with Tween-80 90 % of control | dose: 400.0 mg/kg/injection, schedule: Q04DX003 (ip), vehicle: saline with Tween-80 92 % of control

CC(=O)OC1CCC2(C)C(=O)CCC3C=C(C(=O)C3CSc3ccc(Br)cc3)C(O)CC2C1(C)C (stereo not given)
inactive: dose: 11.25 mg/kg/injection, schedule: Q01DX009 (ip), vehicle: Klucel (hydroxypropylcellulose) (HPC) 95 % of control | dose: 22.5 mg/kg/injection, schedule: Q01DX009 (ip), vehicle: Klucel (hydroxypropylcellulose) (HPC) 100 % of control | dose: 45.0 mg/kg/injection, schedule: Q01DX009 (ip), vehicle: Klucel (hydroxypropylcellulose) (HPC) 94 % of control | dose: 90.0 mg/kg/injection, schedule: Q01DX009 (ip), vehicle: Klucel (hydroxypropylcellulose) (HPC) 100 % of control

O=C1NC(c2ccccc2)(c2ccccc2)C(=O)N1CN1CC=CCC1
inactive: [16] 103 % of control | [17] 108 % of control | dose: 240.0 mg/kg/injection, schedule: Q01DX005 (ip), vehicle: Klucel (hydroxypropylcellulose) (HPC) 97 % of control

C/C(=N\NC(=S)N1CCC(C)CC1)c1cccc2cccnc12
inactive: [18] 106 % of control | [19] 104 % of control

O=C1c2c(O)ccc(Cl)c2C(=O)C2CC=CCC12 (stereo not given)
inactive: dose: 50.0 mg/kg/injection, schedule: Q04DX003 (ip), vehicle: DMSO 94 % of control | dose: 100.0 mg/kg/injection, schedule: Q04DX003 (ip), vehicle: DMSO 88 % of control | dose: 200.0 mg/kg/injection, schedule: Q04DX003 (ip), vehicle: DMSO 87 % of control

O=C(Nc1ccccc1)Sc1nnc2c3ccccc3c3ccccc3c2n1
inactive: [11] 100 % of control | [12] 101 % of control | [20] 99 % of control

Cc1csc(Nc2c3ccccc3nc3ccccc23)n1
inactive: dose: 12.5 mg/kg/injection, schedule: Q04DX002 (ip), vehicle: distilled water + Tween-80 99 % of control | dose: 25.0 mg/kg/injection, schedule: Q04DX002 (ip), vehicle: distilled water + Tween-80 98 % of control | dose: 50.0 mg/kg/injection, schedule: Q04DX002 (ip), vehicle: distilled water + Tween-80 91 % of control | dose: 100.0 mg/kg/injection, schedule: Q04DX002 (ip), vehicle: distilled water + Tween-80 91 % of control | dose: 200.0 mg/kg/injection, schedule: Q04DX002 (ip), vehicle: distilled water + Tween-80 87 % of control | dose: 400.0 mg/kg/injection, schedule: Q04DX002 (ip), vehicle: distilled water + Tween-80 100 % of control

COc1ccc(/C=C/C(=O)C(CN(C)C)CN(C)C)cc1
inactive: dose: 1.56 mg/kg/injection, schedule: Q01DX005 (ip), vehicle: saline 109 % of control | dose: 3.12 mg/kg/injection, schedule: Q01DX005 (ip), vehicle: saline 96 % of control | dose: 6.25 mg/kg/injection, schedule: Q01DX005 (ip), vehicle: saline 106 % of control

O=S(=O)(SC(S(=O)(=O)C12CC3CC(CC(C3)C1)C2)S(=O)(=O)C12CC3CC(CC(C3)C1)C2)C12CC3CC(CC(C3)C1)C2 (stereo not given)
inactive: [11] 95 % of control | [12] 105 % of control | [20] 95 % of control

CCOC(=Nc1ccc(C#N)cc1)SC(c1ccccc1)(c1ccccc1)c1ccccc1
inactive: [18] 104 % of control | [19] 96 % of control | dose: 200.0 mg/kg/injection, schedule: Q01DX005 (ip), vehicle: saline with Tween-80 86 % of control

Cc1ccc(S(=O)(=O)N/N=C/c2c(-c3ccc(-c4ccccc4)cc3)nc3n2CCS3)cc1
inactive: [1] 100 % of control | [2] 102 % of control | [3] 90 % of control

CCOC(=O)Nc1ccc2c3c(cccc13)-c1ccccc1-2
inactive: [4] 90 % of control | [5] 97 % of control | [6] 91 % of control

O=C1OC(CO)C(O)C(O)C1O (stereo not given)
inactive: dose: 50.0 mg/kg/injection, schedule: Q01DX005 (ip), vehicle: saline 100 % of control | dose: 100.0 mg/kg/injection, schedule: Q01DX005 (ip), vehicle: saline 93 % of control | dose: 200.0 mg/kg/injection, schedule: Q01DX005 (ip), vehicle: saline 96 % of control

Clc1nnc(Cl)s1
inactive: [10] 96 % of control | [11] 95 % of control | [12] 101 % of control

Cc1ccc2c(c1)C1(SC(C)C(=O)N1c1ccc(Cl)cc1)C(=O)N2CN1CCOCC1 (stereo not given)
inactive: [13] 113 % of control | [14] 100 % of control | [15] 121 % of control

O=C(NC(Sc1ccc(Cl)cc1)C(=O)O)c1ccccc1 (stereo not given)
inactive: [7] 104 % of control | [8] 94 % of control | [9] 94 % of control

COc1ccc(C(c2cc3c(cc2O)OCO3)N2CCCC2)c(OC)c1 (stereo not given)
inactive: [16] 111 % of control | [17] 118 % of control

O=c1[nH]cc(NS(=O)(=O)c2ccccc2)c(=O)[nH]1
inactive: [13] 105 % of control | [14] 101 % of control

CC1CCC(C(=O)C(Cl)C(Cl)C2CCCCC2)CC1 (stereo not given)
inactive: [4] 92 % of control | [5] 92 % of control

C=C(C(=O)N(C(C)C)C(C)C)C(C)C(C)(C)O (stereo not given)
inactive: dose: 50.0 mg/kg/injection, schedule: Q04DX002 (ip), vehicle: Klucel (hydroxypropylcellulose) (HPC) 101 % of control | dose: 100.0 mg/kg/injection, schedule: Q04DX002 (ip), vehicle: Klucel (hydroxypropylcellulose) (HPC) 101 % of control
